# Reference: ChEMBL document CHEMBL4033687, “Synthesis, biological evaluation and molecular docking studies of chromone hydrazone derivatives as α-glucosidase inhibitors” (Bioorg Med Chem Lett, 2017)
# Active and inactive are the calls of the source. No cut-off for these calls is given here.
# Organism: Homo sapiens
# Assay: Non-competitive inhibition of alpha glucosidase (unknown origin) at 10 to 30 uM using p-nitrophenyl alpha-D-glucopyranoside as substrate by line-weaver burk plot method
row,inhibition,Structure (SMILES)
1,Active,NS(=O)(=O)c1ccc(N/N=C/c2coc3ccccc3c2=O)cc1

# Target: not listed separately
# Assay: Inhibition of alpha glucosidase (unknown origin) using p-nitrophenyl alpha-D-glucopyranoside as substrate pretreated for 15 mins followed by substrate addition after 30 mins by spectrophotometric method
# Parameters: species or system Homo sapiens
row,Structure (SMILES),IC50 [µM]
1,Cc1ccc(S(=O)(=O)N/N=C/c2coc3cc(O)ccc3c2=O)cc1,> 100
2,CCOC(=O)N/N=C/c1coc2cc(O)ccc2c1=O,95.4
3,O=C(N/N=C/c1coc2ccccc2c1=O)c1ccccc1,> 100
4,O=C(N/N=C/c1coc2cc(O)ccc2c1=O)c1ccc(O)cc1,86.3
5,O=c1c(/C=N/Nc2cccc(Cl)c2)coc2ccccc12,> 100
6,O=C(N/N=C/c1coc2ccccc2c1=O)c1cccs1,> 100
7,CCOC(=O)N/N=C/c1coc2ccccc2c1=O,> 100
8,O=C(N/N=C/c1coc2cc(O)ccc2c1=O)c1cccs1,60.8
9,Nc1ccc(C(=O)N/N=C/c2coc3ccccc3c2=O)cc1,96.9
10,O=c1c(/C=N/Nc2cccc(Cl)c2)coc2cc(O)ccc12,96.7

# These reach a lower IC50. Values come first.
row,IC50 [µM],Structure (SMILES)
1,45.7,O=C(N/N=C/c1coc2cc(O)ccc2c1=O)c1ccccc1
2,39.8,O=C(N/N=C/c1coc2ccccc2c1=O)c1ccc(O)cc1
3,30.8,Nc1ccc(C(=O)N/N=C/c2coc3cc(O)ccc3c2=O)cc1
4,26.7,O=c1c(/C=N/Nc2ccccc2)coc2ccccc12
5,25.2,NS(=O)(=O)c1ccc(N/N=C/c2coc3cc(O)ccc3c2=O)cc1
6,20.1,NS(=O)(=O)c1ccc(N/N=C/c2coc3ccccc3c2=O)cc1
